Reference: article PMC7306133 (Diabetes, 2020)
Where a SMILES comes first, the peptide text is derived from it. Where no end group is shown, it is not given here.

What was measured:
[1] = target: HLA-DRB1*04:01 (DR0401) protein (Homo sapiens, UniProt P01903+P01911, A100K/A169T/F76Y/I96L/K127E/L162R/M171V/N62H/P40V/Q125Y/R42H/S133A/S149N/S66Y/V115G/V209L/W38E); assay: DR0401 peptide binding competition assay
[2] = tested on: HIP-specific T-cell clones; assay: Proliferation of HIP-specific T-cell clones in response to human islet fractions; assay type: cell-based; conditions: label = specificity of the clone; compared with the unpulsed control condition
[3] = tested on: CD4+ T cells in peripheral blood of subjects with T1D; assay: Ex vivo tetramer analysis of T-cell frequency; assay type: cell-based, human; conditions: DR0401 tetramers, ex vivo enrichment

| Molecule | IC50 [1] [nM] | Proliferation of the HIP-reactive clone in response to human islets (in words) [2] | Average frequency of HIP-reactive T cells [3] |
| --- | --- | --- | --- |
| HLVEALYLEELVARSE [HIP-4.2] | 440 |  |  |
| SLQKRGIVEELVARSE [HIP-4.18] | 1800 |  |  |
| QPLALEGSALSSQHQA [HIP-4.40] | 2400 |  |  |
| CSLYQLENSVPHFSDE [HIP-4.39] | 240 |  |  |
| CC[C@H](C)[C@H](N)C(=O)N[C@@H](CS)C(=O)N[C@@H](CO)C(=O)N[C@@H](CC(C)C)C(=O)N[C@@H](Cc1ccc(O)cc1)C(=O)N[C@@H](CCC(N)=O)C(=O)N[C@@H](CC(C)C)C(=O)N[C@@H](CCC(=O)O)C(=O)N[C@@H](Cc1ccccc1)C(=O)N[C@H](C(=O)N[C@@H](CC(N)=O)C(=O)N[C@@H](CCC(N)=O)C(=O)N[C@@H](Cc1c[nH]cn1)C(=O)N[C@@H](CC(C)C)C(=O)N[C@@H](CS)C(=O)NCC(=O)O)C(C)C [HIP-4.4] (H-ICSLYQLEFVNQHLCG-OH; N-terminus and C-terminus assumed) |  | not above the unpulsed control condition | 8 cells per million CD4+ T cells |
| VCGERGFFEELVARSE [HIP-4.1] | 2800 |  |  |
